From US11434242B2, “Dopamine-b-hydroxylase inhibitors” (BIAL-PORTELA & Cª, S.A., priority 2017, dated 2022)
Marks after values point to notes of the source that are not given here.

Molecular target: T1, Dopamine beta hydroxylase (Homo sapiens, UniProt P09172)
T1 construct: 125 μl of plasma; tissue Instituto Português do Sangue Transplantação; host or cells: human plasma from healthy donors
T1 sequence (P09172 40-617 limits assumed): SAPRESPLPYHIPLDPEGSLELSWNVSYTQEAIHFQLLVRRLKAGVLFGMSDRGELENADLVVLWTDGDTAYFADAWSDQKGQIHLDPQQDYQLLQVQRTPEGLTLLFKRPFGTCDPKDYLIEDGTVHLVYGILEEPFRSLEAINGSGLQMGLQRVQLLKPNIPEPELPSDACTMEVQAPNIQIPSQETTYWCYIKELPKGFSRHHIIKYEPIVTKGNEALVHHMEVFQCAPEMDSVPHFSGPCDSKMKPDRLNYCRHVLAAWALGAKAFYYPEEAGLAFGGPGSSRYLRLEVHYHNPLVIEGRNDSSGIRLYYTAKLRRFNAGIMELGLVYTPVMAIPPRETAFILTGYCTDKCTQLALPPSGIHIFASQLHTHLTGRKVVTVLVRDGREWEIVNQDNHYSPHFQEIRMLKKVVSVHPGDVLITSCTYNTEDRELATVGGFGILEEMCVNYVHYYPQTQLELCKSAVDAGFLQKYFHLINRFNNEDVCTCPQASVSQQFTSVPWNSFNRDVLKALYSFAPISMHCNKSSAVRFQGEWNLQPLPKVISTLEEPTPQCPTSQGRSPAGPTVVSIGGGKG
Assay: Dopamine beta hydroxylase activity in human plasma
Type: biochemical
Conditions: for Plasma (1 μM), activity in % of control: inhibitor 1 μM
Summary of the method: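 Healthy-donor human plasma pre-incubated 10 min at 37° C with compound at final 10, 100 or 1000 nM in pH 5.0 acetate buffer with ascorbate, fumarate, pargyline, N-ethylmaleimide, catalase and copper sulfate. Tyramine substrate then added for 45 min; octopamine formed was isolated by SCX cartridge, periodate-converted and read at 330 nm; activity given as % control.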

| Structure (SMILES) | Plasma (0.01 μM), activity in % of control (inhibitor 0.01 μM) | Plasma (0.1 μM), activity in % of control (inhibitor 0.1 μM) | Plasma (0.01 μM), activity in % of control, re-test (asterisked) (inhibitor 0.01 μM, re-tested under the same experimental conditions, asterisked data believed to be correct) | Plasma (0.1 μM), activity in % of control, re-test (asterisked) (inhibitor 0.1 μM, re-tested under the same experimental conditions, asterisked data believed to be correct) | Plasma (1 μM), activity in % of control |
| --- | --- | --- | --- | --- | --- |
| Cn1c(CC(=O)NC2(C#N)CC2)c2n(c1=S)C[C@@H](c1c(F)ccc(F)c1F)C2 [Example 254, (R)—N-(1-cyanocyclopropyl)-2-(2-methyl-3-thioxo-6-(2,3,6-trifluorophenyl)-2,5,6,7-tetrahydro-3H-pyrrolo[1,2-c]imidazol-1-yl)acetamide] | 81.4 % of control | 62.2 % of control | – | – | – |
| Fc1cc(F)c(F)c([C@H]2Cc3c(CCc4cccnc4)[nH]c(=S)n3C2)c1F [Example 212, (R)-1-(2-(pyridin-3-yl)ethyl)-6-(2,3,5,6-tetrafluorophenyl)-6,7-dihydro-2H-pyrrolo[1,2-c]imidazole-3(5H)-thione] | 86.5 % of control | 46 % of control | – | – | – |
| Cn1c(CC(=O)Nc2nccs2)c2n(c1=S)C[C@@H](c1c(F)c(F)cc(F)c1F)C2 [Example 340, (R)-2-(2-methyl-6-(2,3,5,6-tetrafluorophenyl)-3-thioxo-2,5,6,7-tetrahydro-3H-pyrrolo[1,2-c]imidazol-1-yl)-N-(thiazol-2-yl)acetamide] | 87.6 % of control | 27.0 % of control | – | – | – |
| O=C(Cc1[nH]c(=S)n2c1[C@@H]1C[C@]1(c1c(F)ccc(Cl)c1F)C2)NCc1cccnc1 [Example 151, 2-((5aS,6aR)-5a-(3-chloro-2,6-difluorophenyl)-3-thioxo-2,3,5,5a,6,6a-hexahydrocyclopropa[3,4]pyrrolo[1,2-c]imidazol-1-yl)-N-(pyridin-3-ylmethyl)acetamide] | 73.7 % of control | 20.2 % of control | – | – | – |
| Cn1c(CC(=O)N[C@@H]2CCOC2)c2n(c1=S)C[C@@]1(c3cc(Cl)ccc3F)C[C@@H]21 [Example 281, 2-((5aS,6aR)-5a-(5-chloro-2-fluorophenyl)-2-methyl-3-thioxo-2,3,5,5a,6,6a-hexahydrocyclopropa[3,4]pyrrolo[1,2-c]imidazol-1-yl)-N—((R)-tetrahydrofuran-3-yl)acetamide] | 107.9 % of control | 29.8 % of control | – | – | – |
| Cn1c(CC(=O)NCC(F)(F)F)c2n(c1=S)C[C@@]1(c3cc(Br)ccc3F)C[C@@H]21 [Example 298, 2-((5aS,6aR)-5a-(5-bromo-2-fluorophenyl)-2-methyl-3-thioxo-2,3,5,5a,6,6a-hexahydrocyclopropa[3,4]pyrrolo[1,2-c]imidazol-1-yl)-N-(2,2,2-trifluoroethyl)acetamide] | 83.5 % of control | 28.2 % of control | – | – | – |
| Cn1c(CC(=O)N2CC[C@H](C#N)C2)c2n(c1=S)C[C@H](c1c(F)ccc(Br)c1F)C2 [Example 450, (S)-1-(2-((S)-6-(3-bromo-2,6-difluorophenyl)-2-methyl-3-thioxo-2,5,6,7-tetrahydro-3H-pyrrolo[1,2-c]imidazol-1-yl)acetyl)pyrrolidine-3-carbonitrile] | 32.6 % of control | 2.3 % of control | – | – | – |
| O=C(Cc1[nH]c(=S)n2c1C[C@H](c1c(F)ccc(Br)c1F)C2)N1CCC(F)(F)CC1 [Example 117, (R)-2-(6-(3-bromo-2,6-difluorophenyl)-3-thioxo-2,5,6,7-tetrahydro-3H-pyrrolo[1,2-c]imidazol-1-yl)-1-(4,4-difluoropiperidin-1-yl)ethan-1-one] | 74.5 % of control | 43.0 % of control | – | – | – |
| N#CCNC(=O)Cc1[nH]c(=S)n2c1C[C@H](c1c(F)ccc(Br)c1F)C2 [Example 159, (R)-2-(6-(3-bromo-2,6-difluorophenyl)-3-thioxo-2,5,6,7-tetrahydro-3H-pyrrolo[1,2-c]imidazol-1-yl)-N-(cyanomethyl)acetamide] | 84.3 % of control | 50.9 % of control | – | – | – |
| Cn1c(CC(=O)N2CCCCC2)c2n(c1=S)C[C@@]1(c3cc(Br)ccc3F)C[C@@H]21 [Example 312, 2-((5aS,6aR)-5a-(5-bromo-2-fluorophenyl)-2-methyl-3-thioxo-2,3,5,5a,6,6a-hexahydrocyclopropa[3,4]pyrrolo[1,2-c]imidazol-1-yl)-1-(piperidin-1-yl)ethan-1-one] | 84.8 % of control | 51.7 % of control | 67.6* % of control | 15.0* % of control | – |
| Cn1c(CC(=O)N2CC[C@@H](F)C2)c2n(c1=S)C[C@@H](c1c(F)ccc(F)c1F)C2 [Example 292, 1-((R)-3-fluoropyrrolidin-1-yl)-2-((R)-2-methyl-3-thioxo-6-(2,3,6-trifluorophenyl)-2,5,6,7-tetrahydro-3H-pyrrolo[1,2-c]imidazol-1-yl)ethan-1-one] | 101.9 % of control | 68.3 % of control | – | – | – |
| CN(C(=O)Cc1[nH]c(=S)n2c1C[C@@H](c1c(F)ccc(Cl)c1F)C2)C1CCOCC1 [Example 380, (S)-2-(6-(3-chloro-2,6-difluorophenyl)-3-thioxo-2,5,6,7-tetrahydro-3H-pyrrolo[1,2-c]imidazol-1-yl)-N-methyl-N-(tetrahydro-2H-pyran-4-yl)acetamide] | 74.9 % of control | 27.4 % of control | – | – | – |
| NC(=O)Cc1[nH]c(=S)n2c1C[C@@H](c1c(F)ccc(Br)c1F)C2 [Example 96, (S)-2-(6-(3-bromo-2,6-difluorophenyl)-3-thioxo-2,5,6,7-tetrahydro-3H-pyrrolo[1,2-c]imidazol-1-yl)acetamide] | – | 22.4 % of control | – | – | 0.8 % of control |
| CN(C(=O)Cc1[nH]c(=S)n2c1C[C@H](c1c(F)ccc(Br)c1F)C2)C1CCOCC1 [Example 128, (R)-2-(6-(3-bromo-2,6-difluorophenyl)-3-thioxo-2,5,6,7-tetrahydro-3H-pyrrolo[1,2-c]imidazol-1-yl)-N-methyl-N-(tetrahydro-2H-pyran-4-yl)acetamide] | 98.1 % of control | 29.7 % of control | – | – | – |
| Fc1ccc(Br)c(F)c1[C@H]1Cc2c(CCc3cccnc3)[nH]c(=S)n2C1 [Example 214, (R)-6-(3-bromo-2,6-difluorophenyl)-1-(2-(pyridin-3-yl)ethyl)-2,5,6,7-tetrahydro-3H-pyrrolo[1,2-c]imidazole-3-thione] | 109.1 % of control | 72.1 % of control | – | – | – |
| O=C(Cc1[nH]c(=S)n2c1C[C@H](c1c(F)c(F)cc(F)c1F)C2)NC1COC1 [Example 393, (R)—N-(oxetan-3-yl)-2-(6-(2,3,5,6-tetrafluorophenyl)-3-thioxo-2,5,6,7-tetrahydro-3H-pyrrolo[1,2-c]imidazol-1-yl)acetamide] | 90.6 % of control | 65.7 % of control | – | – | – |
| OCCc1[nH]c(=S)n2c1C[C@H](c1c(F)ccc(Br)c1F)C2 [Example 173, (R)-6-(3-bromo-2,6-difluorophenyl)-1-(2-hydroxyethyl)-2,5,6,7-tetrahydro-3H-pyrrolo[1,2-c]imidazole-3-thione] | 94.2 % of control | 33.1 % of control | – | – | – |
| CN(CCO)Cc1[nH]c(=S)n2c1C[C@H](c1c(F)c(F)cc(F)c1F)C2.Cl [Example 211, (R)-1-(((2-hydroxyethyl)(methyl)amino)methyl)-6-(2,3,5,6-tetrafluorophenyl)-2,5,6,7-tetrahydro-3H-pyrrolo[1,2-c]imidazole-3-thione hydrochloride] | 104.9 % of control | 94.8 % of control | – | – | – |
| CS(=O)(=O)NC(=O)Cc1[nH]c(=S)n2c1C[C@H](c1cc(F)ccc1F)C2 [Example 24, (R)-2-(6-(2,5-difluorophenyl)-3-thioxo-2,5,6,7-tetrahydro-3H-pyrrolo[1,2-c]imidazol-1-yl)-N-(methylsulfonyl)acetamide] | – | 100.2 % of control | – | – | 45.6 % of control |
| Cn1c(CC(=O)NCC(F)(F)F)c2n(c1=S)C[C@@]1(c3cc(Cl)ccc3F)C[C@@H]21 [Example 300, 2-((5aS,6aR)-5a-(5-chloro-2-fluorophenyl)-2-methyl-3-thioxo-2,3,5,5a,6,6a-hexahydrocyclopropa[3,4]pyrrolo[1,2-c]imidazol-1-yl)-N-(2,2,2-trifluoroethyl)acetamide] | 57.0 % of control | 10.9 % of control | – | – | – |
